The values below come from patent US9603820B2, “Ornithine aminotransferase inhibition with GABA analogues for treatment of hepatocellular carcinoma” (Northwestern University, priority 2014, dated 2017).

Data set [1] concerns the target T1, ornithine aminotransferase (OAT) (Homo sapiens, UniProt P04181).
T1 sequence (P04181 36-439 limits assumed): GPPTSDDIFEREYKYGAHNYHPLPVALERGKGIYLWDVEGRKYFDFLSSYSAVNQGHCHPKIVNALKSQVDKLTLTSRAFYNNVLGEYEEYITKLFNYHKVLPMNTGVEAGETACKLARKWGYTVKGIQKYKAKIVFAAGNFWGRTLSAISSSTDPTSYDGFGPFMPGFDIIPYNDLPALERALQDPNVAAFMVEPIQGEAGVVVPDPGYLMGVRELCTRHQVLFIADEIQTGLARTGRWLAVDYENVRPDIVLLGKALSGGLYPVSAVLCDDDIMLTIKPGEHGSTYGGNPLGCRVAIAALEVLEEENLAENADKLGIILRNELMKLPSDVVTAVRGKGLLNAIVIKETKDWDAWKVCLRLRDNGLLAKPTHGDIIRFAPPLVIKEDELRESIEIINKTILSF
As to the kind of experiment: Continuous coupled OAT assay (PYCR1/NADH), inhibition of OAT. The class given is biochemical. The following applies: FIG. 2. The text has this: With these two assays in hand, the activity of a variety of compounds made previously as potential inhibitors of GABA-AT were investigated.

Data set [2] addresses T1, ornithine aminotransferase (OAT). As to the kind of experiment: Time-dependent inactivation of OAT and dialysis of the inactivated enzyme. In kind it is biochemical. The following applies: no activity returned upon dialysis for 48 h. The method, then:
OAT activity assays were carried out using as follows.
OAT incubated without the inactivator serves as a control. After 24 h, the enzyme solutions are transferred to a D-Tube™ Mini dialyzer and exhaustively dialyzed against the buffer (100 mM pyrophosphate buffer containing 0.1 mM alpha-ketoglutarate and 0.1 mM PLP, pH 8.0) at 4° C. protected from light. The dialysis buffer is exchanged three times every 4 h and left overnight. After 48 h of dialysis, the remaining OAT activity in each of the solutions is assayed.
For the determination of KI and kinact values, the natural logarithm of the percentage of remaining OAT activity is plotted against the pre-incubation time at each inhibitor concentration to obtain the kobs (slope) value for each concentration. The kobs is the rate constant describing the inactivation at each inhibitor concentration. kobs is re-plotted against the inhibitor concentration using nonlinear regression analysis (Graph-Pad Prism 6; GraphPad Software Inc.). kinact and the KI were estimated from the equation below: […], where kinact is the maximal rate of inactivation, KI is the inhibitor concentration required for half-maximal inactivation, and [I] is the pre-incubation concentration of inhibitor. […] The initial rate constants for the inactivation at various concentrations of the two compounds are determined using nonlinear regression analysis.

The test system of data set [3] is γ-aminobutyric acid aminotransferase (GABA-AT). The data set is described as follows: Inhibition/inactivation of GABA-AT. The class given is biochemical. The following applies: even at 10 mM concentration.
The test system of another data set is Hep3B cells. The data set is described as follows: Alpha-fetoprotein (AFP) secretion in HCC cells. The following applies: Hep3B, data not shown. The class given is cell-based, human.
Another data set concerns HepG2. As to the kind of experiment: Suppression of AFP levels in HCC cells. The class given is cell-based. The conditions noted are these: HepG2, data not shown.
A short description of another data set: Safety of 13 in mice. The following applies: 0.5-5 mg/kg, two doses on days 1 and 4, tested a week later; data not shown. In kind it is in vivo, C57Bl/6 mice.

SMILES strings stand for the structures. pKi: −log10 of the molar value.

Experimental for Hep3B cells: Alpha-fetoprotein (AFP) secretion was evaluated as a biomarker for HCC.
Experimental for Safety of 13 in mice: Assessment of the safety of 13 was determined by in vivo administration of 0.5-5 mg/kg doses of 13 to C57Bl/6 mice, n=4 per dose group. Each mouse received two doses on days 1 and 4, and mice were tested a week later for liver enzymes, weight, behavior, and fur look.

Broadly, the pKi is the Ki on a negative log10 scale, so that one unit is a factor of ten. In data set [1], `COc1ccc(CN2C(=O)[C@H]3CC(=C(F)F)[C@@H]2C3)cc1` [Compound 13] had a pKi of 5.52. For the same compound, the “inhibition of / binding to OAT, in words” value in data set [1] is “most potent inhibitor”. Moreover, in data set [2], the “efficiency/potency as time-dependent irreversible inhibitor (inactivator) of OAT” value was “most efficient”. The “inhibition of GABA-AT” value in data set [3] is “does not inhibit GABA-AT”. Moreover, the “suppression of AFP levels / HCC tumor growth in vitro” value in the data set with Hep3B cells and in the data set on HepG2 was “profound suppression” throughout. Moreover, the “liver enzymes, weight, behavior, and fur look” value in “Safety of 13 in mice” is “none of the tested doses were there any notable effects”.
